# Legend:
# Experiment in all cases: ScanEDGE kinase panel (DiscoverX)
# Type in all cases: binding
# Conditions in all cases: read-out: % of control activity at 71 nM
# MARK3 = biological target: T1, MARK3 (Homo sapiens, UniProt P27448)
# T1 construct: T7 phage fusion (most kinases) or DNA tag for qPCR (HEK-293-made kinases); purchased DiscoverX; host or cells: E. coli BL21-derived host (T7 phage) or HEK-293
# Procedure: (§1) ScanEDGE kinase assays paneling specificity across a panel of 96 representative kinases were performed by DiscoverX (Fremont, CA). For most assays, kinase-tagged T7 phage strains were grown in parallel in 24-well blocks in an E. coli host derived from the BL21 strain. Bacteria were grown to log phase and infected with T7 phage from frozen stock (MOI=0.4) and incubated with shaking at 32° C. until lysis (90-150 minutes). The lysates were centrifuged (6000×g) and filtered (0.2 μm) to remove cell debris. The remaining kinases were produced in HEK-293 cells and subsequently tagged with DNA for qPCR detection. […] The liganded beads were blocked with excess biotin and washing with blocking buffer (SeaBlock (Pierce), 1% BSA, 0.05% Tween 20, 1 mM DTT) to remove unbound ligand and to reduce non-specific phage binding. […] Test compounds were prepared as 40× stocks in 100% DMSO and directly diluted into the assay. All reactions were performed in polypropylene 384 well plates in a final volume of 40 μl. […] The kinase concentration in the eluates was measured by qPCR.
# MAP3K4 = biological target: T2, MAP3K4 (Homo sapiens, UniProt Q9Y6R4)
# T2 construct: T7 phage fusion (most kinases) or DNA tag for qPCR (HEK-293-made kinases); purchased DiscoverX; host or cells: E. coli BL21-derived host (T7 phage) or HEK-293
# Procedure: as §1
# PCTK1 = biological target: T3, PCTK1 (Homo sapiens, UniProt Q00536)
# T3 construct: T7 phage fusion (most kinases) or DNA tag for qPCR (kinases made in HEK-293); purchased DiscoverX; host or cells: E. coli BL21-derived host (T7 phage) or HEK-293
# Procedure: as §1
# PIM1 = biological target: T4, PIM1 (Homo sapiens, UniProt P11309)
# T4 construct: T7 phage fusion (most kinases) or DNA tag for qPCR (kinases made in HEK-293); purchased DiscoverX; host or cells: E. coli BL21-derived host (T7 phage) or HEK-293
# Procedure: as §1
# CSNK1D = biological target: T5, CSNK1D (Homo sapiens, UniProt P48730)
# T5 construct: T7 phage fusion (most kinases) or DNA tag for qPCR (HEK-293-made kinases); purchased DiscoverX (Fremont, CA); host or cells: E. coli BL21-derived host (T7 phage) or HEK-293
# Procedure: as §1
# GSK3B = biological target: T6, GSK3B (Homo sapiens, UniProt P49841)
# T6 construct: T7 phage fusion (most kinases) or DNA tag for qPCR (HEK-293-made kinases); purchased DiscoverX; host or cells: E. coli BL21-derived host (T7 phage) or HEK-293
# Procedure: as §1
# ULK2 = biological target: T7, ULK2 (Homo sapiens, UniProt Q8IYT8)
# T7 construct: T7 phage fusion (most kinases) or DNA tag after HEK-293 expression; purchased DiscoverX (Fremont, CA), ScanEDGE; host or cells: T7 phage in E. coli BL21-derived host, or HEK-293
# Procedure: as §1
# PIK3C2B = biological target: T8, PIK3C2B (Homo sapiens, UniProt O00750)
# T8 construct: T7 phage fusion (most kinases) or DNA tag for qPCR (kinases made in HEK-293); purchased DiscoverX; host or cells: E. coli BL21-derived host (T7 phage) or HEK-293
# Procedure: as §1
# ZAP70 = biological target: T9, ZAP70 (Homo sapiens, UniProt P43403)
# T9 construct: T7 phage fusion (most kinases) or DNA tag after HEK-293 expression; purchased DiscoverX (Fremont, CA), ScanEDGE; host or cells: T7 phage in E. coli BL21-derived host, or HEK-293
# Procedure: as §1
# CDK7 = biological target: T10, CDK7 (Homo sapiens, UniProt P50613)
# T10 construct: T7 phage fusion (most kinases) or DNA tag for qPCR (HEK-293-made kinases); purchased DiscoverX (Fremont, CA); host or cells: E. coli BL21-derived host (T7 phage) or HEK-293
# Procedure: as §1
# p38-beta = biological target: T11, p38-beta (Homo sapiens, UniProt Q15759)
# T11 construct: T7 phage fusion (most kinases) or DNA tag for qPCR (kinases made in HEK-293); purchased DiscoverX; host or cells: E. coli BL21-derived host (T7 phage) or HEK-293
# Procedure: as §1
# LCK = biological target: T12, LCK (Homo sapiens, UniProt P06239)
# T12 construct: T7 phage fusion (most kinases) or DNA tag for qPCR (HEK-293-made kinases); purchased DiscoverX; host or cells: E. coli BL21-derived host (T7 phage) or HEK-293
# Procedure: as §1
# HIPK2 = biological target: T13, HIPK2 (Homo sapiens, UniProt Q9H2X6)
# T13 construct: T7 phage fusion (most kinases) or DNA tag for qPCR (HEK-293-made kinases); purchased DiscoverX; host or cells: E. coli BL21-derived host (T7 phage) or HEK-293
# Procedure: as §1
# MLK1 = biological target: T14, MLK1 (Homo sapiens, UniProt P80192)
# T14 construct: T7 phage fusion (most kinases) or DNA tag for qPCR (kinases made in HEK-293); purchased DiscoverX; host or cells: E. coli BL21-derived host (T7 phage) or HEK-293
# Procedure: as §1
# IGF1R = biological target: T15, IGF1R (Homo sapiens, UniProt P08069)
# T15 construct: T7 phage fusion (most kinases) or DNA tag for qPCR (HEK-293-made kinases); purchased DiscoverX; host or cells: E. coli BL21-derived host (T7 phage) or HEK-293
# Procedure: as §1
# DYRK1B = biological target: T16, DYRK1B (Homo sapiens, UniProt Q9Y463)
# T16 construct: T7 phage fusion (most kinases) or DNA tag for qPCR (HEK-293-made kinases); purchased DiscoverX (Fremont, CA); host or cells: E. coli BL21-derived host (T7 phage) or HEK-293
# Procedure: as §1
# IKK-beta = biological target: T17, IKK-beta (Homo sapiens, UniProt O14920)
# T17 construct: T7 phage fusion (most kinases) or DNA tag for qPCR (HEK-293-made kinases); purchased DiscoverX; host or cells: E. coli BL21-derived host (T7 phage) or HEK-293
# Procedure: as §1
# SIK2 = biological target: T18, SIK2 (Homo sapiens, UniProt Q9H0K1)
# T18 construct: T7 phage fusion (most kinases) or DNA tag after HEK-293 expression; purchased DiscoverX (Fremont, CA), ScanEDGE; host or cells: T7 phage in E. coli BL21-derived host, or HEK-293
# Procedure: as §1
# ROCK2 = biological target: T19, ROCK2 (Homo sapiens, UniProt O75116)
# T19 construct: T7 phage fusion (most kinases) or DNA tag after HEK-293 expression; purchased DiscoverX (Fremont, CA), ScanEDGE; host or cells: T7 phage in E. coli BL21-derived host, or HEK-293
# Procedure: as §1
# IKK-alpha = biological target: T20, IKK-alpha (Homo sapiens, UniProt O15111)
# T20 construct: T7 phage fusion (most kinases) or DNA tag for qPCR (HEK-293-made kinases); purchased DiscoverX; host or cells: E. coli BL21-derived host (T7 phage) or HEK-293
# Procedure: as §1
# FAK = biological target: T21, FAK (Homo sapiens, UniProt Q05397)
# T21 construct: T7 phage fusion (most kinases) or DNA tag for qPCR (HEK-293-made kinases); purchased DiscoverX; host or cells: E. coli BL21-derived host (T7 phage) or HEK-293
# Procedure: as §1
# ERBB4 = biological target: T22, ERBB4 (Homo sapiens, UniProt Q15303)
# T22 construct: T7 phage fusion (most kinases) or DNA tag for qPCR (HEK-293-made kinases); purchased DiscoverX; host or cells: E. coli BL21-derived host (T7 phage) or HEK-293
# Procedure: as §1
# SNARK = biological target: T23, SNARK (Homo sapiens, UniProt Q9H093)
# T23 construct: T7 phage fusion (most kinases) or DNA tag after HEK-293 expression; purchased DiscoverX (Fremont, CA), ScanEDGE; host or cells: T7 phage in E. coli BL21-derived host, or HEK-293
# Procedure: as §1
# CHEK1 = biological target: T24, CHEK1 (Homo sapiens, UniProt O14757)
# T24 construct: T7 phage fusion (most kinases) or DNA tag for qPCR (HEK-293-made kinases); purchased DiscoverX (Fremont, CA); host or cells: E. coli BL21-derived host (T7 phage) or HEK-293
# Procedure: as §1
# MKNK1 = biological target: T25, MKNK1 (Homo sapiens, UniProt Q9BUB5)
# T25 construct: T7 phage fusion (most kinases) or DNA tag for qPCR (kinases made in HEK-293); purchased DiscoverX; host or cells: E. coli BL21-derived host (T7 phage) or HEK-293
# Procedure: as §1
# ERK1 = biological target: T26, ERK1 (Homo sapiens, UniProt P27361)
# T26 construct: T7 phage fusion (most kinases) or DNA tag for qPCR (HEK-293-made kinases); purchased DiscoverX; host or cells: E. coli BL21-derived host (T7 phage) or HEK-293
# Procedure: as §1
# JAK2 = biological target: T27, JAK2 (Homo sapiens, UniProt O60674)
# T27 construct: T7 phage fusion (most kinases) or DNA tag for qPCR (HEK-293-made kinases); purchased DiscoverX; host or cells: E. coli BL21-derived host (T7 phage) or HEK-293
# Procedure: as §1
# JNK2 = biological target: T28, JNK2 (Homo sapiens, UniProt P45984)
# T28 construct: T7 phage fusion (most kinases) or DNA tag for qPCR (HEK-293-made kinases); purchased DiscoverX; host or cells: E. coli BL21-derived host (T7 phage) or HEK-293
# Procedure: as §1
# PIK3CA = biological target: T29, PIK3CA (Homo sapiens, UniProt P42336)
# T29 construct: T7 phage fusion (most kinases) or DNA tag for qPCR (kinases made in HEK-293); purchased DiscoverX; host or cells: E. coli BL21-derived host (T7 phage) or HEK-293
# Procedure: as §1
# AKT1 = biological target: T30, AKT1 (Homo sapiens, UniProt P31749)
# T30 construct: T7 phage fusion (most kinases) or DNA tag for qPCR (HEK-293-made kinases); purchased DiscoverX (Fremont, CA); host or cells: E. coli BL21-derived host (T7 phage) or HEK-293
# Procedure: as §1
# MARK1 = biological target: T31, MARK1 (Homo sapiens, UniProt Q9P0L2)
# T31 construct: T7 phage fusion (most kinases) or DNA tag for qPCR (HEK-293-made kinases); purchased DiscoverX; host or cells: E. coli BL21-derived host (T7 phage) or HEK-293
# Procedure: as §1
# PRKCE = biological target: T32, PRKCE (Homo sapiens, UniProt Q02156)
# T32 construct: T7 phage fusion (most kinases) or DNA tag for qPCR (kinases made in HEK-293); purchased DiscoverX; host or cells: E. coli BL21-derived host (T7 phage) or HEK-293
# Procedure: as §1
# RET = biological target: T33, RET (Homo sapiens, UniProt P07949)
# T33 construct: T7 phage fusion (most kinases) or DNA tag after HEK-293 expression; purchased DiscoverX (Fremont, CA), ScanEDGE; host or cells: T7 phage in E. coli BL21-derived host, or HEK-293
# Procedure: as §1
# T11 sequence (Q15759 whole entry, the tested form may be a part): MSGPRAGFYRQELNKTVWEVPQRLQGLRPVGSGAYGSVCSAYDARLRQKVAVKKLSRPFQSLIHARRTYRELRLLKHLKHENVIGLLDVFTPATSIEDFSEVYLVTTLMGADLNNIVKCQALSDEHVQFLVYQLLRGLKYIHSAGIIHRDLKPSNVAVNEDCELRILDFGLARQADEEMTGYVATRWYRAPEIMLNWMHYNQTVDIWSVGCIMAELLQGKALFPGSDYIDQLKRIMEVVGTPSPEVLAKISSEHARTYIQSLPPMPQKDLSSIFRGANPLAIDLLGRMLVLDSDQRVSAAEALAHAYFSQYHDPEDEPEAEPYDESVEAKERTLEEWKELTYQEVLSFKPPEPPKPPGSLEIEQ
# T3 sequence (Q00536 whole entry, the tested form may be a part): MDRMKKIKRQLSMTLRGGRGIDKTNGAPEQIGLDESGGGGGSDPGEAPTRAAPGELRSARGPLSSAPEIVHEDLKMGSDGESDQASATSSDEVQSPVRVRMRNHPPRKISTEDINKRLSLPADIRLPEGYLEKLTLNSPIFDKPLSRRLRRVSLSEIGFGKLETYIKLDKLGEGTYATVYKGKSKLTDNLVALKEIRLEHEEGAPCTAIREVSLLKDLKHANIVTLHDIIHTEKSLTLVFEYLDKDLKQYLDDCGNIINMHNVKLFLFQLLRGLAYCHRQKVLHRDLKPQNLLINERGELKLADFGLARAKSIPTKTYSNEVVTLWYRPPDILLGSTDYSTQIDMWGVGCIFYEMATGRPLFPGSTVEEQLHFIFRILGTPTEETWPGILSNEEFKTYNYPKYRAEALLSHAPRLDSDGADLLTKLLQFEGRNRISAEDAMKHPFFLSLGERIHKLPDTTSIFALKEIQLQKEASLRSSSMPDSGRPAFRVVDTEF
# T32 sequence (Q02156 whole entry, the tested form may be a part): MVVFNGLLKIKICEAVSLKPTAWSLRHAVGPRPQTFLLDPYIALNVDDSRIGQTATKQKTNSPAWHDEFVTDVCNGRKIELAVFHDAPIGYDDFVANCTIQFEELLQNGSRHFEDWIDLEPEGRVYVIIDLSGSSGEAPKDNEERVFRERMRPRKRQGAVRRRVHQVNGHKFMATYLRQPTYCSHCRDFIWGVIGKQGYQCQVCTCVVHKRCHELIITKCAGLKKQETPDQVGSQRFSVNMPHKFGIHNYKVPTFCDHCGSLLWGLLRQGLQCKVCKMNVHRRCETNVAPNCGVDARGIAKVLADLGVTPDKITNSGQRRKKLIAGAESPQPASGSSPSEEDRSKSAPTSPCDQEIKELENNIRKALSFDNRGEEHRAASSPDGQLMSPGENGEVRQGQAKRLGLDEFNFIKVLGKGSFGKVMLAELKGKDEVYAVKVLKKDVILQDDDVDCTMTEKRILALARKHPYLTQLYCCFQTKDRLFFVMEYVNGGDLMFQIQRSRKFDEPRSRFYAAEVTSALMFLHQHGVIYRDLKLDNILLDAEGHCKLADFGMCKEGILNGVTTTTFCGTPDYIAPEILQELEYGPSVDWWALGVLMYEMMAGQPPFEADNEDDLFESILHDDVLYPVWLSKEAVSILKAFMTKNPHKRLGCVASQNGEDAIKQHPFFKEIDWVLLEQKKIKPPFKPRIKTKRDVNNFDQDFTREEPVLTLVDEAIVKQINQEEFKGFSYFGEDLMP
# T21 sequence (Q05397 whole entry, the tested form may be a part): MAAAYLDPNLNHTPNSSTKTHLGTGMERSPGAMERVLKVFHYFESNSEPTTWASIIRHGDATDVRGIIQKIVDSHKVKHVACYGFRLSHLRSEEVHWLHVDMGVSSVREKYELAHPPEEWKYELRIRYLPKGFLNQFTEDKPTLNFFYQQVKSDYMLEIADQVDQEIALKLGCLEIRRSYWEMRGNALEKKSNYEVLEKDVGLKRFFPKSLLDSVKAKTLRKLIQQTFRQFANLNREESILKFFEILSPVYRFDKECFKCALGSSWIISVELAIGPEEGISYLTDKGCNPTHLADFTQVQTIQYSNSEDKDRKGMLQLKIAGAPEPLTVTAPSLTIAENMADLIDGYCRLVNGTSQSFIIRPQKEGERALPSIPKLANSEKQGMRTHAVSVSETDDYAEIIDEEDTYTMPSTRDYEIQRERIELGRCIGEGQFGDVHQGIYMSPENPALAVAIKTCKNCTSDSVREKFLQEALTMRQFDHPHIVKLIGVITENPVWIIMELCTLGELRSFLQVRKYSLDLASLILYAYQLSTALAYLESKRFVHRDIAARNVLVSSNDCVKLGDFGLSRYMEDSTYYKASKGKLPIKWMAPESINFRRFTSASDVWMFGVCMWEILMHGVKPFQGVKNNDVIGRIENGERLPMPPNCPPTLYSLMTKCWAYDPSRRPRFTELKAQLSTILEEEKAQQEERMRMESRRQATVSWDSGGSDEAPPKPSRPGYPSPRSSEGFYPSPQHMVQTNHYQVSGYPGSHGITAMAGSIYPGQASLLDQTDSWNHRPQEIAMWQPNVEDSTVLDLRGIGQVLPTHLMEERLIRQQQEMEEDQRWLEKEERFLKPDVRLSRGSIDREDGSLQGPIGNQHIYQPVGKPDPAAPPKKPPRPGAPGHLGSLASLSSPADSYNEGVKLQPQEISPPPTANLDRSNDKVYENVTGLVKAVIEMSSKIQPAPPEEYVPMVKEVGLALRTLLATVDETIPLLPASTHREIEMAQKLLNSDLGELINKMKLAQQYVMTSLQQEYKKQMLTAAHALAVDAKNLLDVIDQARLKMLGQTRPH
# T1 sequence (P27448 whole entry, the tested form may be a part): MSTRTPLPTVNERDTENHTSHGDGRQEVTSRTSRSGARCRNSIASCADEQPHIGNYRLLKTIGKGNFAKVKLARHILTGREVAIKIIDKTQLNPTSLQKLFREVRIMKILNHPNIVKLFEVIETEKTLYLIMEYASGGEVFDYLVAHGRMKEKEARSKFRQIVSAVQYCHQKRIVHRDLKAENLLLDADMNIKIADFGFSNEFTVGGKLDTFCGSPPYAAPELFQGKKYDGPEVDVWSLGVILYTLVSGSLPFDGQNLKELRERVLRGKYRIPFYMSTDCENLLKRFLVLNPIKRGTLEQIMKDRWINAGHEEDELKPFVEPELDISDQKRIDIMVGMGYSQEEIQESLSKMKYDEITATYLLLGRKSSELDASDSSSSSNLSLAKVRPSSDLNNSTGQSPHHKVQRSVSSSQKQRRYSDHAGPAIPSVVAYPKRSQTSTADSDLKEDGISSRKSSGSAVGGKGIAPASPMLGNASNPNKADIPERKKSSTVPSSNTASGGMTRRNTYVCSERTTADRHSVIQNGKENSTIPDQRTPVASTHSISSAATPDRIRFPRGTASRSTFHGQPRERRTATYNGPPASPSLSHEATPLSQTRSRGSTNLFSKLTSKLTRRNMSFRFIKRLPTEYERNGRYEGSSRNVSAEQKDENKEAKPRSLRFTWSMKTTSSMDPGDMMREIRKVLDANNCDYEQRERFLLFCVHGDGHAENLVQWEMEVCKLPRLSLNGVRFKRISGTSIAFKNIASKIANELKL
# T15 sequence (P08069 31-1367): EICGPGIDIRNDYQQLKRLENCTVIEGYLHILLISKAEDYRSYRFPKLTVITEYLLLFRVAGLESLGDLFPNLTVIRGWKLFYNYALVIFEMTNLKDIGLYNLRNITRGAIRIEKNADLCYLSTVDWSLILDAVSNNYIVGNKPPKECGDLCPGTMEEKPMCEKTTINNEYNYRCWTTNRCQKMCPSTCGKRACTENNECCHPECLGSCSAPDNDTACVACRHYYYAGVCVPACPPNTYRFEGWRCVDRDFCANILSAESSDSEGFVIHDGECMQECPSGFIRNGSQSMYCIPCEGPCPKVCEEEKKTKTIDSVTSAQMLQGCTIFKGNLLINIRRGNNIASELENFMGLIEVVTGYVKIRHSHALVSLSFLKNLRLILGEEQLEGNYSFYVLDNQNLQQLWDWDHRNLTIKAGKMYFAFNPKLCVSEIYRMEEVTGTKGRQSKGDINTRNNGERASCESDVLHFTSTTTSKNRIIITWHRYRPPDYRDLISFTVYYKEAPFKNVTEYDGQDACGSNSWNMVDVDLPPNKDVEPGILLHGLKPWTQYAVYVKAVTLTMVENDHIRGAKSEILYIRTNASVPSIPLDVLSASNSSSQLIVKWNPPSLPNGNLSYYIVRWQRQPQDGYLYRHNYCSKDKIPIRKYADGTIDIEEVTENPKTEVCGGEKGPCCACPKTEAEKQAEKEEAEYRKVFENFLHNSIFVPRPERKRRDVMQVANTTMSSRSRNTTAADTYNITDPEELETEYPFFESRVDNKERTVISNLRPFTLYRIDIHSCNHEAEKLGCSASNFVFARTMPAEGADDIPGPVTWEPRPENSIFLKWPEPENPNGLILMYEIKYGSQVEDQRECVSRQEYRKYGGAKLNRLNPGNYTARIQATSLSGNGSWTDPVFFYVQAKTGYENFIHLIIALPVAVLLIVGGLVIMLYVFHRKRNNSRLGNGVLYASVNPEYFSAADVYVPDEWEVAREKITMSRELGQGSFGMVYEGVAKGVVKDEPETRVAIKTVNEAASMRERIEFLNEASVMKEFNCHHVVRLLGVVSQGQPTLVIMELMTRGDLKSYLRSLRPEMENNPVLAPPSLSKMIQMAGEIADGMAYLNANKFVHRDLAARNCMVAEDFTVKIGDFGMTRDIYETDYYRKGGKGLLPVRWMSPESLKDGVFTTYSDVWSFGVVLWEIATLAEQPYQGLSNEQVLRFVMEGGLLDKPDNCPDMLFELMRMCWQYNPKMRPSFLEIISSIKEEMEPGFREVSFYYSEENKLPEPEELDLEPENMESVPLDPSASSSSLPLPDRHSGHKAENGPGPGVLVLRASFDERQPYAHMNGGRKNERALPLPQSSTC
# T27 sequence (O60674 840-1132 limits assumed): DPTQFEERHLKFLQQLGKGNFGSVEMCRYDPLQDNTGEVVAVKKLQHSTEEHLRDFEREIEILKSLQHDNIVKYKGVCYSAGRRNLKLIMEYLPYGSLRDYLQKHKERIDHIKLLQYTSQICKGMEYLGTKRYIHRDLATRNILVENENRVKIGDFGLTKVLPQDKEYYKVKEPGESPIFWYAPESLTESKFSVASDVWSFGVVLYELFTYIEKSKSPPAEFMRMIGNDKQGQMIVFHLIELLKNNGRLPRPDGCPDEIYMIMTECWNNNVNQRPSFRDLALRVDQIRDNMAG
structure (smiles),measurement,setting,value
COc1ccc(N2C(=O)N(c3c(C)cccc3C)Cc3cnc(Nc4ccc(C5CCN(C)CC5)c(OC)c4)nc32)c(OC)c1 [YKL-05-093],remaining binding at 0.071 µM,MARK3,40%
same,remaining binding at 0.071 µM,MAP3K4,60%
same,remaining binding at 0.071 µM,PCTK1,91%
same,remaining binding at 0.071 µM,PIM1,89%
same,remaining binding at 0.071 µM,CSNK1D,98%
same,remaining binding at 0.071 µM,GSK3B,68%
same,remaining binding at 0.071 µM,ULK2,31%
same,remaining binding at 0.071 µM,PIK3C2B,100%
same,remaining binding at 0.071 µM,ZAP70,52%
same,remaining binding at 0.071 µM,CDK7,85%
same,remaining binding at 0.071 µM,p38-beta,47%
same,remaining binding at 0.071 µM,LCK,0.75%
same,remaining binding at 0.071 µM,HIPK2,100%
same,remaining binding at 0.071 µM,MLK1,12%
same,remaining binding at 0.071 µM,IGF1R,100%
same,remaining binding at 0.071 µM,DYRK1B,93%
same,remaining binding at 0.071 µM,IKK-beta,84%
same,remaining binding at 0.071 µM,SIK2,10%
same,remaining binding at 0.071 µM,ROCK2,70%
same,remaining binding at 0.071 µM,IKK-alpha,93%
same,remaining binding at 0.071 µM,FAK,90%
same,remaining binding at 0.071 µM,ERBB4,6.1%
same,remaining binding at 0.071 µM,SNARK,6%
same,remaining binding at 0.071 µM,CHEK1,42%
same,remaining binding at 0.071 µM,MKNK1,76%
same,remaining binding at 0.071 µM,ERK1,100%
same,remaining binding at 0.071 µM,JAK2,13%
same,remaining binding at 0.071 µM,JNK2,89%
same,remaining binding at 0.071 µM,PIK3CA,84%
same,remaining binding at 0.071 µM,AKT1,92%
same,remaining binding at 0.071 µM,MARK1,84%
same,remaining binding at 0.071 µM,PRKCE,92%
same,remaining binding at 0.071 µM,RET,3.6%

# Reference: patent publication US12121521B2, “Uses of salt-inducible kinase (SIK) inhibitors for treating osteoporosis” (The General Hospital Corporation, priority 2016, dated 2024)
